{
  "source": "PubChem BioAssay AID1259409",
  "about": "(Chemical Carcinogenesis Research Information System (CCRIS), 2018)",
  "origin": "cited, not measured here",
  "test_system": "rodent chemically induced tumor inhibition, incidence and multiplicity",
  "experiment": "CCRIS tumor inhibitor studies",
  "conditions": "Route [Inhibitor]: ORAL, Promoter: NONE USED",
  "data": [
    {"smiles": "COc1ccc([C@@H]2CC(=O)c3c(O)cc(O[C@@H]4O[C@H](CO[C@@H]5O[C@@H](C)[C@H](O)[C@@H](O)[C@H]5O)[C@@H](O)[C@H](O)[C@H]4O)cc3O2)cc1O", "values": [
      {"measurement": "tumour outcome (control, treated, inhibition, significance)", "setting": "Carcinogen: AZOXYMETHANE, 25843-45-2, Dose [Inhibitor]: 0, 1000 PPM IN DIET FOR 28 WK BEGINNING 1 WK POST CARCINOGEN TREATMENT (STUDY DURATION: 32 WK), Species: RAT, Strain/Sex: F344/MALE, Target Tissue: Type of Lesion: SMALL INTESTINE: TUMOR, Dose [Carcinogen]: 15 MG/KG BW 1/WK FOR 3 WK", "value": "5/17 (29%), 0/20 (0%), 100%, p<0.05"},
      {"measurement": "tumour outcome (control, treated, inhibition, significance)", "setting": "Carcinogen: N-BUTYL-N-(4-HYDROXYBUTYL)NITROSAMINE, 3817-11-6, Dose [Inhibitor]: 0, 1000 PPM IN DIET FOR 8 WK BEGINNING 1 WK PRIOR TO CARCINOGEN TREATMENT (STUDY DURATION: 32 WK), Species: MOUSE, Strain/Sex: ICR/MALE, Target Tissue: Type of Lesion: URINARY BLADDER: PAPILLOMA, Dose [Carcinogen]: 500 PPM IN DRINKING WATER FOR 6 WK", "value": "5/26 (19%), 1/23 (4%), 79%, not significant"},
      {"measurement": "tumour outcome (control, treated, inhibition, significance)", "setting": "Carcinogen: N-BUTYL-N-(4-HYDROXYBUTYL)NITROSAMINE, 3817-11-6, Dose [Inhibitor]: 0, 1000 PPM IN DIET FOR 24 WK BEGINNING 1 WK POST CARCINOGEN TREATMENT (STUDY DURATION: 32 WK), Species: MOUSE, Strain/Sex: ICR/MALE, Target Tissue: Type of Lesion: URINARY BLADDER: PAPILLOMA, Dose [Carcinogen]: 500 PPM IN DRINKING WATER FOR 6 WK", "value": "5/26 (19%), 3/25 (12%), 37%, not significant"},
      {"measurement": "tumour outcome (control, treated, inhibition, significance)", "setting": "Carcinogen: N-BUTYL-N-(4-HYDROXYBUTYL)NITROSAMINE, 3817-11-6, Dose [Inhibitor]: 0, 1000 PPM IN DIET FOR 24 WK BEGINNING 1 WK POST CARCINOGEN TREATMENT (STUDY DURATION: 32 WK), Species: MOUSE, Strain/Sex: ICR/MALE, Target Tissue: Type of Lesion: URINARY BLADDER: TRANSITIONAL CELL CARCINOMA, Dose [Carcinogen]: 500 PPM IN DRINKING WATER FOR 6 WK", "value": "16/26 (62%), 5/25 (20%), 68%, p<0.005"},
      {"measurement": "tumour outcome (control, treated, inhibition, significance)", "setting": "Carcinogen: N-BUTYL-N-(4-HYDROXYBUTYL)NITROSAMINE, 3817-11-6, Dose [Inhibitor]: O, 1000 PPM IN DIET FOR 8 WK BEGINNING 1 WK PRIOR TO CARCINOGEN TREATMENT (STUDY DURATION: 32 WK), Species: MOUSE, Strain/Sex: ICR/MALE, Target Tissue: Type of Lesion: URINARY BLADDER: TRANSITIONAL CELL CARCINOMA, Dose [Carcinogen]: 500 PPM IN DRINKING WATER FOR 6 WK", "value": "16/26 (62%), 3/23 (13%), 79%, p<0.001"},
      {"measurement": "tumour outcome (control, treated, inhibition, significance)", "setting": "Carcinogen: N-METHYL-N-AMYLNITROSAMINE, 13256-07-0, Dose [Inhibitor]: 0, 1000 PPM IN DIET FOR 7 WK BEGINNING 1 WK POST CARCINOGEN TREATMENT (STUDY DURATION: 20 WK), Species: RAT, Strain/Sex: WISTAR/MALE, Target Tissue: Type of Lesion: ESOPHAGUS: SQUAMOUS CELL CARCINOMA, Dose [Carcinogen]: 12.5 MG/KG BW 1/WK FOR 12 WK", "value": "75%, 56%, 25%, not significant"},
      {"measurement": "tumour outcome (control, treated, inhibition, significance)", "setting": "Carcinogen: N-METHYL-N-AMYLNITROSAMINE, 13256-07-0, Dose [Inhibitor]: 0, 1000 PPM IN DIET FOR 7 WK BEGINNING 1 WK POST CARCINOGEN TREATMENT (STUDY DURATION: 20 WK), Species: RAT, Strain/Sex: WISTAR/MALE, Target Tissue: Type of Lesion: ESOPHAGUS: SQUAMOUS CELL PAPILLOMA, Dose [Carcinogen]: 12.5 MG/KG BW 1/WK FOR 12 WK", "value": "100%, 100%, 0%, not significant"},
      {"measurement": "tumour outcome (control, treated, inhibition, significance)", "setting": "Carcinogen: N-METHYL-N-AMYLNITROSAMINE, 13256-07-0, Dose [Inhibitor]: 0, 1000 PPM IN DIET FOR 7 WK BEGINNING 1 WK POST CARCINOGEN TREATMENT (STUDY DURATION: 20 WK), Species: RAT, Strain/Sex: WISTAR/MALE, Target Tissue: Type of Lesion: TONGUE: SQUAMOUS CELL CARCINOMA, Dose [Carcinogen]: 12.5 MG/KG BW 1/WK FOR 12 WK", "value": "17%, 16%, 6%, not significant"},
      {"measurement": "tumour outcome (control, treated, inhibition, significance)", "setting": "Carcinogen: N-METHYL-N-AMYLNITROSAMINE, 13256-07-0, Dose [Inhibitor]: 0, 1000 PPM IN DIET FOR 7 WK BEGINNING 1 WK POST CARCINOGEN TREATMENT (STUDY DURATION: 20 WK), Species: RAT, Strain/Sex: WISTAR/MALE, Target Tissue: Type of Lesion: TONGUE: SQUAMOUS CELL PAPILLOMA, Dose [Carcinogen]: 12.5 MG/KG BW 1/WK FOR 12 WK", "value": "33%, 16%, 52%, not calculated"},
      {"measurement": "tumour outcome (control, treated, inhibition, significance)", "setting": "Carcinogen: N-METHYL-N-AMYLNITROSAMINE, 13256-07-0, Dose [Inhibitor]: 0, 1000 PPM IN DIET FOR 13 WK BEGINNING 1 WK PRIOR TO CARCINOGEN TREATMENT (STUDY DURATION: 20 WK), Species: RAT, Strain/Sex: WISTAR/MALE, Target Tissue: Type of Lesion: ESOPHAGUS: SQUAMOUS CELL CARCINOMA, Dose [Carcinogen]: 12.5 MG/KG BW 1/WK FOR 12 WK", "value": "75%, 45%, 40%, not significant"},
      {"measurement": "tumour outcome (control, treated, inhibition, significance)", "setting": "Carcinogen: N-METHYL-N-AMYLNITROSAMINE, 13256-07-0, Dose [Inhibitor]: 0, 1000 PPM IN DIET FOR 13 WK BEGINNING 1 WK PRIOR TO CARCINOGEN TREATMENT (STUDY DURATION: 20 WK), Species: RAT, Strain/Sex: WISTAR/MALE, Target Tissue: Type of Lesion: ESOPHAGUS: SQUAMOUS CELL PAPILLOMA, Dose [Carcinogen]: 12.5 MG/KG BW 1/WK FOR 12 WK", "value": "100%, 100%, 0%, not significant"},
      {"measurement": "tumour outcome (control, treated, inhibition, significance)", "setting": "Carcinogen: N-METHYL-N-AMYLNITROSAMINE, 13256-07-0, Dose [Inhibitor]: 0, 1000 PPM IN DIET FOR 13 WK BEGINNING 1 WK PRIOR TO CARCINOGEN TREATMENT (STUDY DURATION: 20 WK), Species: RAT, Strain/Sex: WISTAR/MALE, Target Tissue: Type of Lesion: TONGUE: SQUAMOUS CELL CARCINOMA, Dose [Carcinogen]: 12.5 MG/KG BW 1/WK FOR 12 WK", "value": "17%, 0%, 100%, not calculated"},
      {"measurement": "tumour outcome (control, treated, inhibition, significance)", "setting": "Carcinogen: N-METHYL-N-AMYLNITROSAMINE, 13256-07-0, Dose [Inhibitor]: 0, 1000 PPM IN DIET FOR 13 WK BEGINNING 1 WK PRIOR TO CARCINOGEN TREATMENT (STUDY DURATION: 20 WK), Species: RAT, Strain/Sex: WISTAR/MALE, Target Tissue: Type of Lesion: TONGUE: SQUAMOUS CELL PAPILLOMA, Dose [Carcinogen]: 12.5 MG/KG BW 1/WK FOR 12 WK", "value": "33%, 10%, 70%, not significant"}
    ]}
  ]
}
